From US20240423945A1, “USE OF FERROPTOSIS INHIBITOR IN PREPARATION OF DRUG FOR TREATING GASTRITIS” (CHILDREN'S HOSPITAL OF CHONGQING MEDICAL UNIVERSITY, priority 2022, published 2024)

Tests used:
[1] = system: GES-1-134 cell (GRIM-19-knockout human gastric mucosal epithelial cell GES-1); test: CCK-8 proliferation viability of GES-1-134 cell intervened with ferrostatin-1; format: cell-based; settings: CCK-8, FIG. 8
Procedure: A CCK-8 kit (Solarbio) was used to analyze the proliferation viability changes of GES-1-NC and GES-1-134 cells, and a specific process was as follows: • (1) The cells were inoculated into a 96-well plate at 5,000 cells/well. • (2) The cells were cultivated at 37° C. and 5% CO2 for 24 h, 48 h, and 72 h. • (3) 10 μL of a CCK-8 solution was added to each well during detection. • (4) The plate was incubated in an incubator for 1 h. • (5) A microplate reader was used to determine the absorbance at 450 nm.
A CCK-8 kit was used to analyze a change of proliferation viability of the GES-1-134 cell intervened with the ferroptosis inhibitor ferrostatin-1. After the GES-1-134 cell was intervened with the ferroptosis inhibitor ferrostatin-1, the proliferation ability was increased and the viability was recovered.

[2] = system: ferroptosis marker proteins (COX2, GPX4, FTH1, and TFR) in the GES-1-134 cell; test: WB of ferroptosis marker proteins in GES-1-134 cell treated with ferrostatin-1; format: cell-based, Human; settings: ferrostatin-1 0, 5, 10 μM, FIG. 9A
Procedure: (§1) 4. The expression of GRIM-19 was analyzed by WB, and a specific process was as follows: • (1) The cells were subjected to lysis with an RIPA lysis buffer (Beyotime) on ice for 30 min or more. • (2) A resulting lysate was centrifuged at 12,000 rpm for 10 min, and a resulting supernatant was collected. • (3) A corresponding volume of a sodium dodecyl sulfate-polyacrylamide gel electrophoresis (SDS-PAGE) protein loading buffer was added, and a resulting mixture was incubated in a metal bath at 100° C. for 10 min. • (4) SDS-PAGE was conducted. • (5) Blocking was conducted at room temperature for 30 min. • (6) A primary antibody was added, and a resulting mixture was incubated overnight at 4° C. on a shaker. • (7) A membrane was washed with TBST three times for 10 min each time. • (8) A secondary antibody was added, and a resulting mixture was incubated for 1 h at room temperature on a shaker. • (9) A membrane was washed with TBST three times for 10 min each time. • (10) Development was conducted.
(§2) WB was used to analyze the expression of ferroptosis markers in the GES-1-134 cell and the GRIM-19^−/− mouse gastric mucosal tissue that each were intervened with ferrostatin-1.

[3] = system: ferroptosis marker proteins (COX2, GPX4, FTH1, and TFR) in the GRIM-19−/− mouse gastric mucosal tissue; test: WB of ferroptosis marker proteins in GRIM-19−/− mouse gastric mucosal tissue intervened with ferrostatin-1; format: in vivo; settings: ferrostatin-1 injected, FIG. 9B
Procedure: as §1, §2

[4] = system: inflammatory factors IL-6, TNF-α, VEGF, GM-CSF, IL-1β, and IL-33 in the GES-1-134 cell; test: WB of inflammatory factors in GES-1-134 cell intervened with ferrostatin-1; format: cell-based, Human; settings: GES-1-134 cell in vitro, FIG. 10A
Procedure: as §1
(§3) WB was used to detect the expression of inflammatory factors in the GES-1-134 cell and GRIM-19^−/− mouse after being intervened with the ferroptosis inhibitor ferrostatin-1.

[5] = system: inflammatory factors in the GRIM-19−/− mouse gastric mucosal tissue; test: WB of inflammatory factors in GRIM-19−/− mouse gastric mucosal tissue intervened with ferrostatin-1; format: in vivo
Procedure: as §1, §3

[6] = system: SPEM marker proteins TFF2, Mist1, Clusterin-1, HE4, and MUC6 in the GRIM-19−/− mouse gastric mucosal tissue; test: WB of SPEM markers in GRIM-19−/− mouse gastric mucosal tissue intervened with ferrostatin-1; format: in vivo; settings: intraperitoneally injected, compared with the PBS injection control, FIG. 11A
Procedure: as §1
WB was used to detect the expression of SPEM markers in the gastric mucosal tissue of the GRIM-19^−/− mouse intraperitoneally injected with the ferroptosis inhibitor ferrostatin-1.

[7] = system: GIF, GSII, and Mist1 positive cells in GRIM-19−/− mouse gastric mucosal tissue; test: GIF/GSII/Mist1 immunofluorescence colocalization analysis of SPEM markers in GRIM-19−/− mouse gastric mucosal tissue; format: in vivo; settings: intraperitoneally injected, compared with the PBS group, FIG. 11B
Procedure: After a mouse was intraperitoneally injected with the ferroptosis inhibitor ferrostatin-1, an immunofluorescence technique was used to analyze the GIF, GSII, and Mist1 positive colocalization expression of SPEM markers in a gastric mucosal tissue, and a specific process was as follows: • (1) embedding a tissue with OCT; • (2) sectioning; • (3) fixing with 4% PFA; • (4) blocking with serum; • (5) incubating with a primary antibody overnight at 4° C.; • (6) rinsing with PBS 3 times; • (7) incubating with a secondary antibody at room temperature for 2 h; • (8) rinsing with PBS 3 times; • (9) counter-staining with DAPI for 10 min; • (10) rinsing with PBS 3 times; and • (11) mounting with an anti-fluorescence attenuation agent.

[8] = compared with the PBS injection control, WB, FIG. 10B

CCOC(=O)c1ccc(NC2CCCCC2)c(N)c1 [ferrostatin-1]
recovered: viability [1]
effectively reduce: expression of GM-CSF ([5]; in vivo injection) | expression of IL-1β ([5]; in vivo injection) | expression of IL-33 ([5]; in vivo injection) | expression of VEGF ([5]; in vivo injection)
decreased significantly: number of positive cells (GIF+, GSII+, Mist1+) [7]
showed the same change trend: expression level of COX-2 [3] | expression level of FTH1 [3] | expression level of GPX4 [3] | expression level of TFR [3]
significantly reduced: expression level of GM-CSF [4] | expression level of IL-1β [4] | expression level of IL-6 [4] | expression level of IL-33 [4] | expression level of TNF-α [4] | expression level of VEGF [4] | expression level of IL-6 [5, 8] | expression level of TNF-α [5, 8]
significantly weakened: expression of Clusterin-1 [6] | expression of HE4 [6] | expression of MUC6 [6] | expression of Mist1 [6] | expression of TFF2 [6]
decreased: expression level of COX-2 [2] | expression level of TFR [2] | number of GIF+/GSII+ double-positive cells [7] | number of GIF+/GSII+/Mist1+ triple-positive cells [7] | number of GIF+/Mist1+ double-positive cells [7]
increased: proliferation ability [1] | expression level of FTH1 [2] | expression level of GPX4 [2]
